Consider two compounds from US20110071117A1, “COMBINATIONS OF ANTIOXIDANTS AND ANTI-INFLAMMATORY DRUGS IN THE TREATMENT OF INFLAMMATORY BOWEL DISEASE” (The Board of Regents of the University of Oklahoma, priority 2008, published 2011).

In assay [1] the test system is TNBS colitis. As to the kind of experiment: Macroscopic injury score of distal colon in TNBS colitis, rectal (enema) treatment. Particulars: 11 days after TNBS, 8 days of daily rectal treatment, mean±SEM, scale of Table 1, TNBS alone 5.9±0.6. Format: in vivo, Male Sprague Dawley rats. The source says: (§1) Male Sprague Dawley rats weighing 200-250 grams were housed in the animal facility in cages containing contact bedding. Rats were deprived of food but not water for 24 hrs prior to the induction of colitis. Institutional approval for experimental protocols was provided by the research and animal care committees of the Research Services at the Oklahoma City Veterans Administration Medical Center.
(§2) Fasted animals were lightly anesthetized with isoflurane and then subjected to enema administration of TNBS and subsequently study drugs. The experimental protocol is similar to that previously described (20). The tip of polyethylene catheter was advanced transanally 8 cm to the distal colon and a single dose of TNBS (Sigma, St. Louis, Mo.), was instilled intraluminally (15 mg of TNBS dissolved in a 0.6 ml volume of 50% ethanol) to induce colitis. Following the administration of TNBS the animals were maintained in a head-down position for approximately 60 seconds to prevent leakage of the infusate.
Three days after TNBS dosing rats were randomly assigned to receive one of the following treatments by enema in a manner similar to that used for TNBS administration. […]
Inflammation was present if the mucosa was erythematous. […] Once macroscopic damage was assessed full thickness colonic tissue samples were taken from inflamed areas and processed for histology.

The subject of assay [2] is TNBS colitis. As to the kind of experiment: Microscopic (histological) injury of distal colon in TNBS colitis, rectal (enema) treatment. The assay is classed as in vivo, Male Sprague Dawley rats.
Excerpt: as §1, §2
Three days after TNBS dosing rats were randomly assigned to receive one of the following treatments by enema in a manner similar to that used for TNBS administration. The TNBS treated animals received one of the following therapies 5-ASA (100 mg/kg) alone or 5-ASA in combination with one of the following: vitamin C (100 mg/kg), phenyl butylnitrone (PBN; 30 mg/kg) and vitamin E (a tocopherol; 50 mg/kg solubilized in DMSO). The doses of selected antioxidants were derived from the literature in which these agents had been used in experimental models of disease or IBD (19, 22, 23). Comparator groups included TNBS dosed rats that received 8 doses of rectal saline and saline treated controls. Rats were treated for 8 days and then sacrificed.
Histological assessment was used to measure colonic injury. Colonic tissue samples taken from the distal colon were immersed in 10% phosphate buffered formalin and subsequently embedded in paraffin. Sections of 3 micron thickness were stained with hematoxylin and eosin. The slides were then evaluated by a pathologist for epithelial damage, architectural changes, polymorphonuclear leukocyte (PMN) infiltration, mononuclear cell infiltration, and ulceration. The microscopic features of colitis were graded on a 0-3 scale with 0 being normal and 3 representing severe or most intense abnormality. In addition to scoring individual features of colitis, an aggregate score of colitis for each rat was tabulated by adding together individual parameter scores, thus, providing a global assessment of colitis.

Another assay relates to MPO activity. As to the kind of experiment: Colonic inflammation by MPO assay in distal colon tissue, TNBS colitis. Format: in vivo, Male Sprague Dawley rats. The note with it: 11 days after TNBS, 8 days of treatment; mean±SEM; TNBS colitis 703+130. The source says: Fasted animals were lightly anesthetized with isoflurane and then subjected to enema administration of TNBS and subsequently study drugs. The experimental protocol is similar to that previously described (20). The tip of polyethylene catheter was advanced […] 8 cm to the distal colon and a single dose of TNBS (Sigma, St. […] Following the administration of TNBS the animals were maintained in a head-down position for approximately 60 seconds to prevent leakage of the infusate. Three days after TNBS dosing rats were randomly assigned to receive one of the following treatments by enema in a manner similar to that used for TNBS administration. The TNBS treated animals received one of the following therapies 5-ASA (100 mg/kg) alone or 5-ASA in combination with one of the following: vitamin C (100 mg/kg), phenyl butylnitrone (PBN; 30 mg/kg) and vitamin E (a tocopherol; 50 mg/kg solubilized in DMSO). The doses of selected antioxidants were derived from the literature in which these agents had been used in experimental models of disease or IBD (19, 22, 23). Comparator groups included TNBS dosed rats that received 8 doses of rectal saline and saline treated controls. Rats were treated for 8 days and then sacrificed. MPO activity was measured in colonic tissue samples by colorimetric assay. […] The absorbance changes were read at 450 nm and recorded. Results are expressed as nanograms per gram of tissue. […]

Assay [3] has as its system cytokine gene expression (IL-1A, IL-1B, 1L-04, IL-6 and TNFα). The note with it: similarly designed studies; cited from earlier work.
Setting [4] is: distal colonic specimen, 8 days of topical treatment begun 3 days after TNBS.

Turning to `Nc1ccc(O)c(C(=O)O)c1` [5-ASA, 5-aminosalicylic acid], the macroscopic injury score in the assay with TNBS colitis [1] is reported as 3.8±0.4. In addition, in the assay on TNBS colitis [2] (distal colon, 11 days after TNBS, 8 days of daily rectal treatment, mean±SEM, sum of indices graded 0-3, TNBS alone 13.3±0.5), the “global microscopic injury score” value is recorded as 9.1±1.0. Also, in the assay on TNBS colitis [2] (setting [4]), the “inflammation in representative photomicrograph” value is given as “mild inflammation in the submucosa” and the “mucosal ulceration in representative photomicrograph” value was “an area of mucosal ulceration”. In addition, in the assay on TNBS colitis [2] (printed as reduction/decrease), the “reduction of global microscopic colitis vs TNBS” value was 31%. Besides, the “MPO activity in the distal colon” value in the assay on MPO activity is 354±81 ng/gm. In addition, the “cytokine gene expression elicited by TNBS” value in assay [3] is on record as “did not achieve this degree of statistical distinction”.
As for `CC(=O)N[C@@H](CS)C(=O)O` [NAC, N-acetylcysteine], the “cytokine gene expression elicited by TNBS” value in assay [3] is given as “did not achieve this degree of statistical distinction”.
